The values below come from paper PMC11259703, “A small-molecule allele-selective transcriptional inhibitor of the MIF immune susceptibility locus” (The Journal of Biological Chemistry, 2024).

The target in one series is T1, ICBP90 (UHRF1) (Homo sapiens, UniProt Q96T88).
T1 construct: SET and RING finger-associated (SRA) domain, amino acids 413 to 618 (ICBP90^413-618), C-terminal 6xHis
T1 sequence (Q96T88 413-618): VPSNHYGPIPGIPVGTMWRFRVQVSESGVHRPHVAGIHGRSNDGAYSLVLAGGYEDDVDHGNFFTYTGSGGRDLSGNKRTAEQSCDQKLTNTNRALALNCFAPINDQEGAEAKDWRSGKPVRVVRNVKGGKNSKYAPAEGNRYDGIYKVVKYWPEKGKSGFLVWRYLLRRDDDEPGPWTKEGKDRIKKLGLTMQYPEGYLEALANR
The series is described as follows: AlphaScreen inhibition of purified ICBP90 SRA domain binding to biotinylated MIF promoter CATT8 DNA; confirmed by EMSA dose response. (Bead proximity is the source of the signal in Alpha formats.)

For series [1], the system named is ICBP90 413-618 (SRA domain). Nature of the series: AlphaScreen. The note with it: IC50 of the small-molecule inhibitor CMFT, not a DNA affinity; EMSA: LightShift kit buffer, poly(dI-dC), 20 min at 22 C, 6% native PAGE; ELISA: 10 mM Tris-HCl pH 7.5, 50 mM KCl, 1 mM DTT; AlphaScreen: same plus 0.01% ….

`COC(=O)c1ccc(O)c2nc3c(C=O)c(O)cc(O)c3nc12` [compound 3, 1-carbomethoxy-5-formyl-4,6,8-trihydroxyphenazine] returned an IC50 on ICBP90 (UHRF1) of 490 nM.
Consider “MIF promoter CATT8 (-794 CATT8), 5'-biotin”, for which, in series [1], the IC50 was determined as 490 nM.

As a reminder, the IC50 is the concentration that inhibits the measured activity by half.
